This assay concerns the target human PAD4 (hPAD4) (Homo sapiens (Human), UniProt Q9UM07). Description: RFMS Human PAD4 Functional Assay 1. The note with it: RFMS assay 1; 5 nM hPAD4, 250 μM BAEE substrate, 50 μM calcium, 37° C. The class given is biochemical. The gist of the method: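 Citrullination product read by RapidFire triple-quad MRM against a modified-citrulline internal standard, after TCA stop and 30 min phenyl glyoxal step at 37 °C. Reaction: 250 μM BAEE, 5 nM human PAD4, 90 min at 37 °C, pH 7.5 HEPES buffer with 50 μM calcium and 5 μM TPEN, following 30 min compound–enzyme preincubation (max 50 μM).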

For 23 molecules, IC50 results are on record in patent US12473304B2, “Heterocyclic PAD4 inhibitors” (BRISTOL-MYERS SQUIBB COMPANY, priority 2020, dated 2025).

Sequence of human PAD4 (hPAD4) (Q9UM07 whole entry): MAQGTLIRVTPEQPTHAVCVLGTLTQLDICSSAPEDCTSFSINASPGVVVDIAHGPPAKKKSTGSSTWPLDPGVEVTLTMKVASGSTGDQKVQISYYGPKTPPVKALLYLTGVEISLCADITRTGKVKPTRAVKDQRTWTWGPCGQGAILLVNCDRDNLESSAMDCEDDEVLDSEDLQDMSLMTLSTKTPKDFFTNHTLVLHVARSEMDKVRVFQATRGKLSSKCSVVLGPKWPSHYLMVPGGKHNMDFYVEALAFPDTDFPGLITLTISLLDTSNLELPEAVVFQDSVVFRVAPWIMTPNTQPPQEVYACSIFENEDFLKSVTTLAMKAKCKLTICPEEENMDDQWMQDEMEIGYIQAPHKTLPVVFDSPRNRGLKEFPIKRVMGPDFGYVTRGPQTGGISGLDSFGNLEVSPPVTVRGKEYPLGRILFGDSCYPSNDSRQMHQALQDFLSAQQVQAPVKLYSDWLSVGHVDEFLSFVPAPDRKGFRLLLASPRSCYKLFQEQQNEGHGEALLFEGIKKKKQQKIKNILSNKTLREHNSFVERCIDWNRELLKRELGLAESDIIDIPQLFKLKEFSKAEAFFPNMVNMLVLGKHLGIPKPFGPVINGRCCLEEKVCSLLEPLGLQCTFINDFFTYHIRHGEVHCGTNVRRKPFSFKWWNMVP

Turning to `COc1cc(C(=O)N2C[C@H](N)C[C@@H](F)C2)cn2nc(-c3cc4cccc(C5CCN(C(=O)[C@H]6CC[C@H](O)CC6)CC5)c4n3CC3CC3)c(C)c12` [Example 409, ((3R,5R)-3-Amino-5-fluoropiperidin-1-yl)(2-(1-(cyclopropylmethyl)-7-(1-((1r,4r)-4-hydroxycyclohexane-1-carbonyl)piperidin-4-yl)-1H-indol-2-yl)-4-methoxy-3-methylpyrazolo[1,5-a]pyridin-6-yl)methanone], the IC50 was determined as 40 nM.

Turning to `COc1cc(C(=O)N2CCC[C@@H](N)C2)cn2nc(-c3cc4cccc(C5CCN(C(=O)[C@H](C)OC)CC5)c4n3CC3CC3)c(C)c12` [Example 403, (S)-1-(4-(2-(6-((R)-3-Aminopiperidine-1-carbonyl)-4-methoxy-3-methylpyrazolo[1,5-a]pyridin-2-yl)-1-(cyclopropylmethyl)-1H-indol-7-yl)piperidin-1-yl)-2-methoxypropan-1-one], the IC50 stood at 460 nM.

Regarding `Cc1c(-c2cc3ccc(-c4ccc(C(N)=O)cc4)nc3n2CC2CC2)nn2cc(C(=O)N3CC4CCC3[C@@H]4N)cc(F)c12` (stereo partly drawn) [Example 263, 4-(2-{6-[(7R)-7-Amino-2-azabicyclo[2.2.1]heptane-2-carbonyl]-4-fluoro-3-methylpyrazolo[1,5-a]pyridin-2-yl}-1-(cyclopropylmethyl)-1H-pyrrolo[2,3-b]pyridin-6-yl)benzamide], the IC50 came out at 90 nM. As for `Cc1c(-c2cc3cccc(C4CCN(C(=O)C5CCCCO5)CC4)c3n2CC2CC2)nn2cc(C(=O)N3C[C@H](N)C[C@@H](F)C3)ccc12` (mixture of isomers) [Example 458], the figure is 80 nM; as for `Cc1c(-c2cc3ccc(-c4cccc(O)c4F)cc3n2CC2CC2)oc2cc(C(=O)N3C[C@H](N)C[C@@H](F)C3)ccc12` [Example 198, ((3R,5R)-3-Amino-5-fluoropiperidin-1-yl)(2-(1-(cyclopropylmethyl)-6-(2-fluoro-3-hydroxyphenyl)-1H-indol-2-yl)-3-methylbenzofuran-6-yl)methanone], 3260 nM. As for `COc1cc(C(=O)N2CCC[C@@H](N)C2)cn2nc(-c3cc4ccc(-c5ccccc5C(N)=O)cc4n3CC3CC3)c(C)c12` [Example 237, 2-(2-{6-[(3R)-3-Aminopiperidine-1-carbonyl]-4-methoxy-3-methylpyrazolo[1,5-a]pyridin-2-yl}-1-(cyclopropylmethyl)-1H-indol-6-yl)benzamide], the figure is 250 nM; as for `Cc1c(-c2cc3ccc(-c4ccc5c(c4)CNC5=O)cc3n2CC2CC2)nn2cc(C(=O)N3CC4CCC3[C@@H]4N)ccc12` (stereo partly drawn) [Example 90, 5-(2-(6-((7R)-7-Amino-2-azabicyclo[2.2.1]heptane-2-carbonyl)-3-methylpyrazolo[1,5-a]pyridin-2-yl)-1-(cyclopropylmethyl)-1H-indol-6-yl)isoindolin-1-one], 12 nM; as for `Cc1c(-c2cc3cccc(OCCn4cncn4)c3n2CC2CC2)nn2cc(C(=O)N3CCC[C@@H](N)C3)ccc12` [Example 580, (R)-(2-(7-(2-(1H-1,2,4-Triazol-1-yl)ethoxy)-1-(cyclopropylmethyl)-1H-indol-2-yl)-3-methylpyrazolo[1,5-a]pyridin-6-yl)(3-aminopiperidin-1-yl)methanone], 60 nM. For `Cc1c(-c2cc3cccc(C4CCN(C(=O)C5CC(O)(C(F)(F)F)C5)CC4)c3n2CC2CC2)nn2cc(C(=O)N3CCC[C@@H](N)C3)cc(F)c12` (mixture of isomers) [Example 422, (R)-(3-Aminopiperidin-1-yl)(2-(1-(cyclopropylmethyl)-7-(1-(3-hydroxy-3-(trifluoromethyl)cyclobutane-1-carbonyl)piperidin-4-yl)-1H-indol-2-yl)-4-fluoro-3-methylpyrazolo[1,5-a]pyridin-6-yl)methanone], the IC50 came to 400 nM. As for `COc1cc(C(=O)N2C[C@H](N)C[C@@H](F)C2)cn2nc(-c3cc4ccc(-c5cccc(NS(C)(=O)=O)c5)cc4n3CC3CC3)c(C)c12` [Example 213, N-[3-(2-{6-[(3R,5R)-3-Amino-5-fluoropiperidine-1-carbonyl]-4-methoxy-3-methylpyrazolo[1,5-a]pyridin-2-yl}-1-(cyclopropylmethyl)-1H-indol-6-yl)phenyl]methanesulfonamide], the figure is 680 nM. The figure for `Cc1c(-c2cc3ccc(-c4ccc5c(c4)CNC5=O)nc3n2CC2CC2)nn2cc(C(=O)N3CCC[C@@H](N)C3)cc(F)c12` [Example 284, 5-(2-{6-[(3R)-3-Aminopiperidine-1-carbonyl]-4-fluoro-3-methylpyrazolo[1,5-a]pyridin-2-yl}-1-(cyclopropylmethyl)-1H-pyrrolo[2,3-b]pyridin-6-yl)-2,3-dihydro-1H-isoindol-1-one] is 1860 nM. As to `Cc1c(-c2cc3ccc(-c4ccc(C(N)=O)c(F)c4)cc3n2CC2CC2)oc2cc(C(=O)N3CC4CCC3[C@@H]4N)ccc12` (stereo partly drawn) [Example 185, 4-(2-(6-((7R)-7-Amino-2-azabicyclo[2.2.1]heptane-2-carbonyl)-3-methylbenzofuran-2-yl)-1-(cyclopropylmethyl)-1H-indol-6-yl)-2-fluorobenzamide], the IC50 amounted to 25 nM. The figure for `Cc1c(-c2cc3ccc(N4CCC(C(=O)N5CCCC5)CC4)cc3n2CC2CC2)nn2cc(C(=O)N3CCC[C@@H](N)C3)ccc12` [Example 361, (3R)-1-{2-[1-(Cyclopropylmethyl)-6-[4-(pyrrolidine-1-carbonyl)piperidin-1-yl]-1H-indol-2-yl]-3-methylpyrazolo[1,5-a]pyridine-6-carbonyl}piperidin-3-amine] is 300 nM; for `Cc1c(-c2cc3cccc(C4CCN(C(=O)C(C)(C)O)CC4)c3n2CC2CC2)nn2cc(C(=O)N3C[C@H](N)C[C@@H](F)C3)ccc12` [Example 435, 1-(4-(2-(6-((3R,5R)-3-amino-5-fluoropiperidine-1-carbonyl)-3-methylpyrazolo[1,5-a]pyridin-2-yl)-1-(cyclopropylmethyl)-1H-indol-7-yl)piperidin-1-yl)-2-hydroxy-2-methylpropan-1-one] it is 380 nM. The figure for `Cc1ccc2cc(-c3oc4cc(C(=O)N5CC6CCC5[C@@H]6N)ccc4c3C)n(CC3CC3)c2n1` (stereo partly drawn) [Example 171, ((7R)-7-Amino-2-azabicyclo[2.2.1]heptan-2-yl)(2-(1-(cyclopropylmethyl)-6-methyl-1H-pyrrolo[2,3-b]pyridin-2-yl)-3-methylbenzofuran-6-yl)methanone] is 76 nM; for `COc1cc(C(=O)N2CC3CCC2[C@@H]3N)cc2sc(-c3cc4ccc(-c5ccc6c(c5)CNC6=O)cc4n3CC3CC3)c(C)c12` (stereo partly drawn) [Example 126, 5-(2-(6-((7R)-7-Amino-2-azabicyclo[2.2.1]heptane-2-carbonyl)-4-methoxy-3-methylbenzo[b]thiophen-2-yl)-1-(cyclopropylmethyl)-1H-indol-6-yl)isoindolin-1-one] it is 122 nM; for `Cc1cc(-c2ccc3cc(-c4oc5cc(C(=O)N6CC7CCC6[C@@H]7N)ccc5c4C)n(CC4CC4)c3c2)cnc1C(N)=O` (stereo partly drawn) [Example 188, 5-(2-(6-((7R)-7-Amino-2-azabicyclo[2.2.1]heptane-2-carbonyl)-3-methylbenzofuran-2-yl)-1-(cyclopropylmethyl)-1H-indol-6-yl)-3-methylpicolinamide] it is 81 nM. As for `COc1cc(C(=O)N2C[C@H](N)C[C@@H](F)C2)cn2nc(-c3cc4ccc(-c5ccc6c(c5)C(=O)NC6)nc4n3CC3CC3)c(C)c12` [Example 16, 6-(2-(6-((3R,5R)-3-Amino-5-fluoropiperidine-1-carbonyl)-4-methoxy-3-methylpyrazolo[1,5-a]pyridin-2-yl)-1-(cyclopropylmethyl)-1H-pyrrolo[2,3-b]pyridin-6-yl)isoindolin-1-one], the figure is 407 nM. Turning to `Cc1c(-c2cc3ccc(-c4ccc(N5CCNC5=O)cc4)cc3n2CC2CC2)nn2cc(C(=O)N3CC4CCC3[C@@H]4N)ccc12` (stereo partly drawn) [Example 328, 1-[4-(2-{6-[(7R)-7-Amino-2-azabicyclo[2.2.1]heptane-2-carbonyl]-3-methylpyrazolo[1,5-a]pyridin-2-yl}-1-(cyclopropylmethyl)-1H-indol-6-yl)phenyl]imidazolidin-2-one], the IC50 stood at 120 nM. The figure for `Cc1c(-c2cc3cccc(C4CCN(C(=O)CO)CC4)c3n2CC2CC2)nn2cc(C(=O)N3C[C@H](N)C[C@@H](F)C3)ccc12` [Example 438, 1-(4-(2-(6-((3R,5R)-3-amino-5-fluoropiperidine-1-carbonyl)-3-methylpyrazolo[1,5-a]pyridin-2-yl)-1-(cyclopropylmethyl)-1H-indol-7-yl)piperidin-1-yl)-2-hydroxyethan-1-one] is 30 nM; for `COc1cc(C(=O)N2C[C@H](N)C[C@@H](F)C2)cn2nc(-c3cc4ccc(N5CCC(N(C)C(C)=O)CC5)cc4n3CC3CC3)c(C)c12` [Example 243, N-[1-(2-{6-[(3R,5R)-3-Amino-5-fluoropiperidine-1-carbonyl]-4-methoxy-3-methylpyrazolo[1,5-a]pyridin-2-yl}-1-(cyclopropylmethyl)-1H-indol-6-yl)piperidin-4-yl]-N-methylacetamide] it is 4120 nM. As for `COc1cc(C(=O)N2CC3CCC2[C@@H]3N)cc2sc(-c3cc4ccc(-c5ccc6c(c5)C(=O)NC6)nc4n3CC3CC3)c(C)c12` (stereo partly drawn) [Example 135, 6-(2-(6-((7R)-7-Amino-2-azabicyclo[2.2.1]heptane-2-carbonyl)-4-methoxy-3-methylbenzo[b]thiophen-2-yl)-1-(cyclopropylmethyl)-1H-pyrrolo[2,3-b]pyridin-6-yl)isoindolin-1-one], the figure is 233 nM; as for `CC(=O)N1CCC(c2cccc3cc(-c4nn5cc(C(=O)N6C[C@H](N)C[C@@H](F)C6)cc(F)c5c4C)n(CC4CC4)c23)CC1` [Example 427, 1-(4-(2-(6-((3R,5R)-3-Amino-5-fluoropiperidine-1-carbonyl)-4-fluoro-3-methylpyrazolo[1,5-a]pyridin-2-yl)-1-(cyclopropylmethyl)-1H-indol-7-yl)piperidin-1-yl)ethan-1-one], 20 nM.
